Key:
[1] = biological target: T1, 14-3-3ζ/Rubic peptide (Homo sapiens, UniProt P63104); experiment: FA peptide screen, 14-3-3ζ titration to client peptide and compound: Rubic; assay type: binding; settings: 250 μM compound, 100 nM peptide; +1 Phe
T1 construct: made in house; host or cells: NiCo21 (DE3) E. coli
Method: (§1) Since the hub protein 14-3-3 binds to hundreds of phosphoprotein partners, selectivity of PPI stabilization is a major challenge. The interplay of chemical reactivity, and the topology and functionality of the composite binding pocket shaped by 14-3-3 and Tau potentially provide entries towards selective stabilization. […] Here, 14-3-3ζ was titrated to a constant concentration of client peptide (100 nM) and compound (250 μM) to determine the SF250μM values for the particular 14-3-3 PPI. A variety of 14-3-3 binding proteins was represented in this client panel whereby the size and hydrophobicity of the +1 amino acid were varied. […]
(§2) chromatography (HisTrap high performance cartridges, Cytiva). Typically two 5 mL columns were used for a 2 L culture in which the lysate was loaded on the column, washed with 10 CV wash buffer (50 mM Hepes, pH 8.0, 300 mM NaCl, 25 mM imidazole, 2 mM βME), and eluted with several fractions (2-4 CV) of elution buffer (50 mM Hepes, pH 8.0, 300 mM NaCl, 250 mM imidazole, 2 mM βME). […] Dialyzed protein was concentrated to ∼40 mg/mL, analyzed by Q -Tof LC/MS, and aliquots were flash -frozen for storage at −80 °C. […] Fractions containing the 14 -3-3 protein were pooled and concentrated to ∼60 mg/mL, analyzed Q -Tof LC/MS, and aliquots were flash -frozen for storage at −80°C.
(§3) Fluorescence Anisotropy – compound titration […]

[2] = biological target: T2, 14-3-3ζ/RND3 peptide (Homo sapiens, UniProt P63104); experiment: FA peptide screen, 14-3-3ζ titration to client peptide and compound: RND3; assay type: binding; settings: 250 μM compound, 100 nM peptide; +1 Cys
T2 construct: made in house; host or cells: NiCo21 (DE3) E. coli
Method: as §1, §2, §3

T2 sequence (P63104 whole entry, other chains not shown): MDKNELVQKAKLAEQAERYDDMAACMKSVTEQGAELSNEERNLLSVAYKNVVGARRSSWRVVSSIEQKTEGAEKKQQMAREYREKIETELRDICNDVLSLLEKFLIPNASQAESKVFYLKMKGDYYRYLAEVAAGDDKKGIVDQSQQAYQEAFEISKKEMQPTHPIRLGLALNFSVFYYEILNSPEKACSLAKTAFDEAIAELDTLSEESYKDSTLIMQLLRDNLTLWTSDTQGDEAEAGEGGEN
T1 sequence (P63104 whole entry, other chains not shown): as above

stabilization of 14-3-3/Rubic peptide (in words) [1]: no significant stabilization
SMILES: CCc1ccc(-c2nccn2-c2ccc(C=O)c(Br)c2)cc1 [Compound 18]
stabilization of 14-3-3/RND3 peptide (in words) [2]: did not show significant stabilizing activity
